# Data as given in patent US6864217B2, “Herbicidal compositions with substituted phenylsulfonylureas for controlling weeds in rice” (Hoechst Schering AgrEvo GmbH, priority 1998, dated 2005).
# Where two headings read alike, the source gives them in different places.
# Key:
# [1] = tested on: Ipomoea hederacea; test: Table 20 field trial, treatment at the 4-6 leaf stage: weed control; format: in vivo; conditions: 28 days after application
# Source text: (§1) Field trial: Treatment at the 4-6 leaf stage, evaluation 28 days after the application.
# [2] = tested on: Oryza sativa; test: Table 20 field trial, treatment at the 4-6 leaf stage: rice damage; format: in vivo; conditions: 28 days after application
# Source text: as §1
# [3] = tested on: Cyperus serotinus; test: Table 21 field trial, treatment at the 2 leaf stage: weed control; format: in vivo; conditions: 28 days after application
# Source text: (§2) Field trial: Treatment at the 2 leaf stage, evaluation 28 days after the application.
# [4] = tested on: Oryza sativa; test: Table 21 field trial, treatment at the 2 leaf stage: rice damage; format: in vivo
# Source text: as §2
# [5] = tested on: Polygonum convolvulus; test: Table 25 field trial, treatment at the 3 leaf stage: weed control; format: in vivo; conditions: 33 days after application
# Source text: (§3) Field trial: Treatment at the 3 leaf stage, evaluation 33 days after the application.
# [6] = tested on: Oryza sativa; test: Table 25 field trial, treatment at the 3 leaf stage: rice damage; format: in vivo; conditions: 33 days after application
# Source text: as §3
# [7] = tested on: Echinochloa crusgalli; test: Table 7 field trial, treatment at the 1-2 leaf stage: weed control; format: in vivo; conditions: 28 days after application
# Experimental: (§9) The examples mentioned below were carried out in the greenhouse, and in some instances, in field trials.
# [8] = tested on: Marsilea crenata; test: as above; format: in vivo; conditions: 28 days after application
# Experimental: as §9
# [9] = tested on: Oryza sativa; test: Table 7 field trial, treatment at the 1-2 leaf stage: rice damage; format: in vivo; conditions: 28 days after application
# Experimental: as §9
# [10] = tested on: Echinochloa crusgalli; test: Table 8 greenhouse trial, treatment at the 1-2 leaf stage: weed control; format: in vivo; conditions: 22 days after application
# Source text: (§4) Seeds or rhizome pieces of mono- and dicotyledonous weed plants are placed into sandy loam soil in plastic pots, covered with soil and grown in a greenhouse under good growth conditions (temperature, atmospheric humidity, water supply). Weeds which are encountered in the cultivation of rice are cultivated in pots in which the water level is up to 2 cm over the soil surface. […] The active compound combinations according to the invention, formulated as wettable powders or emulsion concentrates, and, in parallel experiments, the correspondingly formulated individual active compounds are sprayed onto the green parts of the plants at different dosages using an amount of water of 300 to 600 l/ha (converted), and, after about 3 to 4 weeks of the test plants in the greenhouse under optimum growth conditions (temperature, atmospheric humidity, water supply), the effect of the preparations is evaluated visually in comparison to untreated controls. In the case of rice or weeds which are encountered in the cultivation of rice, the active compounds are also added directly to the water for irrigation (application analogous to the so-called granules application) or sprayed onto plants and added to the water for irrigation. The experiments were designed with several, up to five, repetitions. The herbicidal compositions according to the invention also have good herbicidal post-emergence activity against a broad spectrum of economically important weed grasses and broad-leaved weeds.
# [11] = tested on: Oryza sativa; test: Table 8 greenhouse trial, treatment at the 1-2 leaf stage: rice damage; format: in vivo; conditions: 22 days after application
# Source text: as §4
# [12] = tested on: Cyperus iria; test: Table 24 field trial, treatment by the pre-emergence method: weed control; format: in vivo; conditions: 400 g of ai/ha, 53 days after application
# Source text: (§5) Field trial: Treatment by the pre-emergence method, evaluation 53 days after the application.
# [13] = tested on: Oryza sativa; test: Table 24 field trial, treatment by the pre-emergence method: rice damage; format: in vivo; conditions: in vivo
# Source text: as §5
# [14] = tested on: Cyperus serotinus; test: Table 19 field trial, treatment at the 2 leaf stage: weed control; format: in vivo; conditions: 14 days after application
# Source text: (§6) Field trial: Treatment at the 2 leaf stage, evaluation 14 days after the application.
# [15] = tested on: Oryza sativa; test: Table 19 field trial, treatment at the 2 leaf stage: rice damage; format: in vivo; conditions: 14 days after application
# Source text: as §6
# [16] = tested on: Commelina benghalensis; test: Table 26 field trial, treatment at the 3 leaf stage: weed control; format: in vivo; conditions: 33 days after application
# Source text: as §3
# [17] = tested on: Oryza sativa; test: Table 26 field trial, treatment at the 3 leaf stage: rice damage; format: in vivo; conditions: 33 days after application
# Source text: as §3
# [18] = tested on: Echinochloa crusgalli; test: Table 6 field trial, treatment at the 1-2 leaf stage: weed control; format: in vivo; conditions: 28 days after application
# Experimental: as §9
# [19] = tested on: Oryza sativa; test: Table 6 field trial, treatment at the 1-2 leaf stage: rice damage; format: in vivo; conditions: in vivo
# Experimental: as §9
# [20] = tested on: Sagittaria pygmaea; test: Table 22 field trial, treatment: 1-2 leaf stage: weed control; format: in vivo; conditions: 28 days after application
# Source text: Field trial: Treatment: 1-2 leaf stage, evaluation 28 days after the application.
# [21] = tested on: Cyperus serotinus; test: Table 12 greenhouse trial, treatment at the 1-2 leaf stage: weed control; format: in vivo; conditions: 20 days after application
# Experimental: (§7) Seeds or rhizome pieces of mono- and dicotyledonous weed plants are placed into sandy loam soil in plastic pots, covered with soil and grown in a greenhouse under good growth conditions (temperature, atmospheric humidity, water supply). Weeds which are encountered in the cultivation of rice are cultivated in pots in which the water level is up to 2 cm over the soil surface. Three weeks after sowing, the test plants are treated at the three-leaf stage. The active compound combinations according to the invention, formulated as wettable powders or emulsion concentrates, and, in parallel experiments, the correspondingly formulated individual active compounds are sprayed onto the green parts of the plants at different dosages using an amount of water of 300 to 600 l/ha (converted), and, after about 3 to 4 weeks of the test plants in the greenhouse under optimum growth conditions (temperature, atmospheric humidity, water supply), the effect of the preparations is evaluated visually in comparison to untreated controls. In the case of rice or weeds which are encountered in the cultivation of rice, the active compounds are also added directly to the water for irrigation (application analogous to the so-called granules application) or sprayed onto plants and added to the water for irrigation. The experiments were designed with several, up to five, repetitions. The herbicidal compositions according to the invention also have good herbicidal post-emergence activity against a broad spectrum of economically important weed grasses and broad-leaved weeds.
# (§8) Greenhouse trial: Treatment at the 1-2 leaf stage, evaluation 20 days after the application.
# [22] = tested on: Oryza sativa; test: Table 12 greenhouse trial, treatment at the 1-2 leaf stage: rice damage; format: in vivo; conditions: greenhouse trial, 20 days after application
# Experimental: as §7, §8
# [23] = tested on: Echinochloa crusgalli; test: Table 17 field trial, treatment at the 2 leaf stage: weed control; format: in vivo; conditions: 14 days after application
# Source text: as §6
# [24] = tested on: Oryza sativa; test: Table 17 field trial, treatment at the 2 leaf stage: rice damage; format: in vivo; conditions: 14 days after application
# Source text: as §6
# [25] = tested on: Echinochloa crusgalli; test: Table 11 greenhouse trial, treatment at the 1-2 leaf stage: weed control; format: in vivo; conditions: 20 days after application
# Experimental: as §7, §8
# [26] = tested on: Oryza sativa; conditions: in vivo
# Experimental: as §7, with “The herbicidal compositions according to the invention also have good herbicidal post-emergence activity against a broad spectrum of economically important weed grasses and broad-leaved weeds.” left out
compound,measurement,setting,value
"CCN(CC)C(=O)SCc1ccc(Cl)cc1 [B11), S-[(4-chlorophenyl)methyl]diethylcarbamothioate]",IPOHE % control,[1]; 3300 g of ai/ha,43%
same,ORYSW % damage,[2]; 3300 g of ai/ha,3%
"CC(C)(SC(=O)N1CCCCC1)c1ccccc1 [B9), S-(1-methyl-1-phenylethyl)1-piperidincarbothioate]",CYPSE % control,[3]; 3000 g of ai/ha,45%
same,ORYSW % damage,"[4]; 3000 g of ai/ha, field trial, 28 days after application",5%
"COc1c(Cl)ccc(Cl)c1C(=O)O [B31), 3,6-dichloro-o-anisic acid]",POLCO % control,[5]; 240 g of ai/ha,45%
same,POLCO % control,[5]; 480 g of ai/ha,80%
same,ORYSW % damage,[6]; 240 g of ai/ha,8%
same,ORYSW % damage,[6]; 480 g of ai/ha,10%
"COc1cccc(N(C)C(=S)Oc2cccc(C(C)(C)C)c2)n1 [B12), O-[3-(1,1-dimethylethyl)phenyl](6-methoxy-2-pyridinyl)methylcarbamothioate]",CYPSE % control,[3]; 600 g of ai/ha,65%
same,ORYSW % damage,"[4]; 600 g of ai/ha, field trial, 28 days after application",3%
"CCSC(=O)N1CCCCCC1 [B10), S-ethyl hexahydro-1H-azepin-1-carbothioate]",IPOHE % control,[1]; 4480 g of ai/ha,55%
same,ORYSW % damage,[2]; 4480 g of ai/ha,0%
"CCC(=O)Nc1ccc(Cl)c(Cl)c1 [B7), N-(3,4-dichlorophenyl)propanamide]",ECHCG % control,[7]; 1000 g of ai/ha,79%
same,ECHCG % control,[7]; 2000 g of ai/ha,88%
same,MASCR % control,[8]; 1000 g of ai/ha,0%
same,MASCR % control,[8]; 2000 g of ai/ha,0%
same,ORYSW % damage,[9]; 1000 g of ai/ha,0%
same,ORYSW % damage,[9]; 2000 g of ai/ha,0%
same,ECHCG % control,[10]; 1250 g of ai/ha,0%
same,ECHCG % control,[10]; 2500 g of ai/ha,0%
same,ECHCG % control,[10]; 5000 g of ai/ha,10%
same,ORYSW % damage,[11]; 1250 g of ai/ha,0%
same,ORYSW % damage,[11]; 2500 g of ai/ha,0%
same,ORYSW % damage,[11]; 5000 g of ai/ha,0%
"CC1(C)CON(Cc2ccccc2Cl)C1=O [B44), 2-[(2-chlorophenyl)methyl]-4,4-dimethyl-3-isoxazolidinone]",CYPIR % control,[12],30%
same,ORYSW % damage,[13],0%
C#CCN(C)c1c(C#N)cnn1-c1nn2c(c1Cl)CCCC2 [B33b)],CYPSE % control,[14]; 100 g of ai/ha,40%
same,CYPSE % control,[14]; 200 g of ai/ha,50%
same,CYPSE % control,[14]; 400 g of ai/ha,80%
same,ORYSW % damage,[15]; 100 g of ai/ha,6%
same,ORYSW % damage,[15]; 200 g of ai/ha,8%
same,ORYSW % damage,[15]; 400 g of ai/ha,12%
"CCC1(CC2(c3cccc(Cl)c3)CO2)C(=O)c2ccccc2C1=O (racemic) [B71), (RS)-2-[2-(3-chlorophenyl)-2,3-epoxypropyl]-2-ethyl-indane-1,3-dione]",CYPSE % control,[3]; 150 g of ai/ha,55%
same,ORYSW % damage,[4]; in vivo,4%
"O=C(O)COc1nc(Cl)c(Cl)cc1Cl [B40), [(3,5,6-trichloro-2-pyridinyl)oxy]acetic acid]",IPOHE % control,[1]; 420 g of ai/ha,65%
same,ORYSW % damage,[2]; 420 g of ai/ha,20%
"CC(C)=C1OC(=O)N(c2cc(OC3CCCC3)c(Cl)cc2F)C1=O [B70), 3-(4-chloro-5-cyclopentyloxy-2-fluorophenyl)-5-iso-propylidene-1,3-oxazolidine-2,4-dione]",CYPSE % control,[14]; 150 g of ai/ha,50%
same,CYPSE % control,[14]; 450 g of ai/ha,65%
same,ORYSW % damage,[15]; 150 g of ai/ha,0%
same,ORYSW % damage,[15]; 450 g of ai/ha,0%
"COc1nc(C)nc(NC(=O)NS(=O)(=O)c2ccccc2C(=O)O)n1 [B57), 2-(4-methoxy-6-methyl-1,3,5-triazin-2-ylcarbamoyl-sulfamoyl)benzoic acid]",COMBE % control,[16]; 1 g of ai/ha,20%
same,COMBE % control,[16]; 2 g of ai/ha,68%
same,ORYSW % damage,[17]; 1 g of ai/ha,0%
same,ORYSW % damage,[17]; 2 g of ai/ha,0%
"CCCCOCN(C(=O)CCl)c1c(CC)cccc1CC [B1), N-(butoxymethyl)-2-chloro-N-(2,6-diethylphenyl)acetamide]",ECHCG % control,[18]; 300 g of ai/ha,81%
same,ECHCG % control,[18]; 600 g of ai/ha,89%
same,ORYSW % damage,[19],0%
"CN(C(=O)COc1nc2ccccc2s1)c1ccccc1 [B5), 2-(2-benzothiazolyloxy)-N-methyl-N-phenylacetamide]",SAGPY % control,[20]; 600 g of ai/ha,0%
same,SAGPY % control,[20]; 1200 g of ai/ha,0%
same,SAGPY % control,[20]; 2400 g of ai/ha,0%
"COCCOc1ccccc1S(=O)(=O)NC(=O)Nc1nc(OC)nc(OC)n1 [B60), N-[[(4,6-dimethoxy-1,3,5-triazin-2-yl)amino]carbonyl]-2-(2-methoxyethoxy)benzolsulfonamide]",CYPSE % control,[21]; 15 g of ai/ha,0%
same,CYPSE % control,[21]; 30 g of ai/ha,15%
same,CYPSE % control,[21]; 60 g of ai/ha,15%
same,ORYSW % damage,[22]; 15 g of ai/ha,0%
same,ORYSW % damage,[22]; 30 g of ai/ha,0%
same,ORYSW % damage,[22]; 60 g of ai/ha,5%
"CSC(=O)c1c(C(F)F)nc(C(F)(F)F)c(C(=O)SC)c1CC(C)C [B24), S,S′-dimethyl-2-(difluoromethyl)-4-(2-methylpropyl)-6-(trifluoromethyl)-3,5-pyridindicarbothioate]",CYPSE % control,[3]; 60 g of ai/ha,60%
same,ORYSW % damage,[4]; in vivo,6%
"CCOC(=O)C(Cl)Cc1cc(-n2nc(C)n(C(F)F)c2=O)c(F)cc1Cl (racemic) [B38), ethyl (RS)-2-chloro-3-[2-chloro-5-(4-difluoromethyl-4,5-dihydro-3-methyl-5-oxo-1H-1,2,4-,triazol-1-yl)-4-fluorophenyl]propionate]",ECHCG % control,[23]; 7.5 g of ai/ha,50%
same,ECHCG % control,[23]; 15 g of ai/ha,52%
same,ECHCG % control,[23]; 30 g of ai/ha,52%
same,ORYSW % damage,[24]; 7.5 g of ai/ha,0%
same,ORYSW % damage,[24]; 15 g of ai/ha,0%
same,ORYSW % damage,[24]; 30 g of ai/ha,0%
"COc1cc(OC)nc(NC(=O)NS(=O)(=O)c2c(Cl)nc3ccccn23)n1 [B61), 2-chloro-N-[[(4,6-dimethoxy-2-pyrimidinyl)amino]-carbonyl]imidazo[1,2-a]pyridine-3-sulfonamide]",ECHCG % control,[25]; 8 g of ai/ha,0%
same,ECHCG % control,[25]; 15 g of ai/ha,25%
same,ECHCG % control,[25]; 30 g of ai/ha,50%
same,ECHCG % control,[25]; 60 g of ai/ha,60%
same,ORYSW % damage,[26],0%
